± gives the standard deviation of the averaged measurements.
Tested on: Escherichia coli K12 ER1821
Assay: log10 surviving fraction N/N0 (CFU/mL relative to untreated control) (log_unit); higher = more bacterial survival (less inactivation)
Procedure: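 E. coli K12 ER1821 (mid-exponential, washed in 250 mM sucrose) was exposed to antibiotic at MIC, 3x, 10x or 30x MIC, given a single 1-ms pulse of 0-20 kV/cm, and incubated with the antibiotic at room temperature for <=1 min, 60 min, 160 min or 24 h before dilution. Survivors were counted as CFU by drop plating after overnight growth at 37 C; the value is log10(N/N0) relative to the untreated control (no antibiotic, no pulse), with 3 replicates on different days.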

CC1(C)S[C@@H]2[C@H](NC(=O)[C@H](N)c3ccccc3)C(=O)N2[C@H]1C(=O)O [ampicillin]
log10 surviving fraction N/N0
Conditions | antibiotic concentration 300 ug/mL | antibiotic concentration 900 ug/mL
electric pulse amplitude (kV/cm, single 1-ms pulse): 0, post-pulse incubation time: 24 h | -2.56 ± 0.4 | -2.68 ± 0.58
electric pulse amplitude (kV/cm, single 1-ms pulse): 0, post-pulse incubation time: 60 min | -1.02 ± 0.3 | -1.65 ± 0.55
electric pulse amplitude (kV/cm, single 1-ms pulse): 0, post-pulse incubation time: 160 min | -1.68 ± 0.37 | -2.17 ± 0.18
electric pulse amplitude (kV/cm, single 1-ms pulse): 0, post-pulse incubation time: <=1 min | -0.17 ± 0.065 | -0.995 ± 1.3
electric pulse amplitude (kV/cm, single 1-ms pulse): 5, post-pulse incubation time: 24 h | -2.86 ± 0.12 | -3.4 ± 0.45
electric pulse amplitude (kV/cm, single 1-ms pulse): 5, post-pulse incubation time: 60 min | -1.56 ± 0.34 | -2.27 ± 0.084
electric pulse amplitude (kV/cm, single 1-ms pulse): 5, post-pulse incubation time: 160 min | -2.27 ± 0.37 | -2.86 ± 0.15
electric pulse amplitude (kV/cm, single 1-ms pulse): 5, post-pulse incubation time: <=1 min | -0.412 ± 0.064 | -1.08 ± 0.74
electric pulse amplitude (kV/cm, single 1-ms pulse): 10, post-pulse incubation time: 24 h | -4.063 ± 0.034 | -4.5 ± 0.3
electric pulse amplitude (kV/cm, single 1-ms pulse): 10, post-pulse incubation time: 60 min | -2.43 ± 0.1 | -2.817 ± 0.024
electric pulse amplitude (kV/cm, single 1-ms pulse): 10, post-pulse incubation time: 160 min | -2.96 ± 0.21 | -3.31 ± 0.052
electric pulse amplitude (kV/cm, single 1-ms pulse): 10, post-pulse incubation time: <=1 min | -1.11 ± 0.27 | -1.27 ± 0.38
electric pulse amplitude (kV/cm, single 1-ms pulse): 15, post-pulse incubation time: 24 h | -4.45 ± 0.2 | -4.93 ± 0.065
electric pulse amplitude (kV/cm, single 1-ms pulse): 15, post-pulse incubation time: 60 min | -2.9 ± 0.12 | -3.28 ± 0.097
electric pulse amplitude (kV/cm, single 1-ms pulse): 15, post-pulse incubation time: 160 min | -3.3 ± 0.13 | -3.8 ± 0.19
electric pulse amplitude (kV/cm, single 1-ms pulse): 15, post-pulse incubation time: <=1 min | -1.34 ± 0.096 | -1.99 ± 0.23
electric pulse amplitude (kV/cm, single 1-ms pulse): 20, post-pulse incubation time: 24 h | -4.6 ± 0.24 | -4.96 ± 0.26
electric pulse amplitude (kV/cm, single 1-ms pulse): 20, post-pulse incubation time: 60 min | -3.42 ± 0.14 | -3.64 ± 0.23
electric pulse amplitude (kV/cm, single 1-ms pulse): 20, post-pulse incubation time: 160 min | -3.77 ± 0.091 | -4.02 ± 0.18
electric pulse amplitude (kV/cm, single 1-ms pulse): 20, post-pulse incubation time: <=1 min | -1.85 ± 0.18 | -2.58 ± 0.27

Reference: the supplement of paper PMC8558673
